In patent US7071190B2, “Inhibitors to tubulin polymerization” (Rigel Pharmaceuticals, Inc., priority 2002, dated 2006):
“Also recorded” adds a separate entry of the source.

What was measured:
A549 (lung) tumors = assay: A549 (lung) human tumor xenograft in nude mice; type: in vivo, NCr nude (nu/nu) female mice; settings: for Increase in tumor volume at 35 days normalized to tumor volume at start of drug treatment: vehicle approximately 7-fold; for %T/C (mean tumor volume treated vs. control ×100): A549 xenografts
Text: (§1) A nude mouse/human carcinoma model was used to examine the effect of tubulin inhibitors on tumor growth and animal survival. Groups of immune deficient (nude) mice were implanted subcutaneously with suspensions of the human tumor lines A549 (lung) and SW480 (colon). When palpable tumors appeared and were of a preselected volume (approximately 40–150 mm^3), animals were subdivided into various treatment groups such that the variation in mean tumor volume of each group was within 10%. The animals were then treated daily with either control vehicle or Compound 1 administered by intraperitonel injection. Twice weekly, the volume of the tumors in each animal in each group was measured to gather information on tumor growth (volume) as a function of time. Systemic toxicity was assessed by measuring individual animal body weights, and toxicity was evaluated by examination of differences in body weight gain as a function of time. Tumor volumes and body weights were monitored for up to 35 days after the beginning of treatment.
Cell Lines: Human tumor lines A549 (lung) and SW480 (colon) were grown in cell culture medium (F-11) containing 10% Fetal Bovine Serum (FBS). The cells were kept at 37° C. in a humidified 5% CO2/air incubator. Antibiotics were not added to the medium.
NCr nude (nu/nu) female mice, age 3–4 weeks, were purchased from Taconic (Germantown, N.Y.). The animals were housed ten per cage in sterile filter-topped cages in ventilated cage racks and Microisolator™ cages. Upon arrival, they were quarantined for at least four working days before use. Temperature was maintained at 72±5° F. (19–24° C.) and relative humidity at 35–70%, and a 12-hour light/dark cycle was used. The mice were fed sterile, autoclavable, certified, Purina rodent chow ad libitum. Drinking water was also autoclaved.
After the animals were released from quarantine, the mice were injected subcutaneously in the right flank with either 5×10^6 A549 cells or 5×10^6 SW480 cells in complete medium at an injection volume of 0.1 ml. Tumor dimensions and body weights were measured two times per week. Vernier calipers were used to measure tumors in two planes, and tumor volume (V) was calculated as follows: V=(xy^2)/2,
The test articles were administered intraperitoneally generally at a dose level of 10 mg/kg. When the solubility of a molecule of the invention was relatively low, we used relatively higher levels of organic co-solvents for preparation of the dosing solution. The “vehicle” of the invention comprised of 7.1% ethanol/35.8% PEG400/57.1% phosphate buffer (v/v/v).
When the tumor volumes reached a predetermined size (mean tumor volume between about 40–150 mm^3), animals were added randomly to treatment groups of 12 mice each as follows: Animals were treated daily with the vehicle or Compound 1 (10 mg/kg), or with the positive control drug (Taxol) administered by intraperitoneal injection at the maximum tolerated dose of 20 mg/kg every fourth day, on Days 1, 4, 7, and 10.
The tumor volumes of the animals were monitored for evidence of shrinkage or growth delay for a period of up to 35 days after the start of treatment. Response to treatment was measured in two ways, depending on the tumor response to treatment. The first was the optimum T/C (%), calculated as follows: For each day the tumors were measured, the changes in median tumor volume (V) for each treated (T) and control (C) group were determined by subtracting the […] tumor volume on the first day of treatment (Day 0) from the median tumor volume on the specific observation day. These values were used to express a percent difference in size, [% T/C=(T/C)×100]. The minimum value is designated the optimum response to treatment. A value of 42% or less is considered active by National Cancer Institute (NCI) standards. […]

A549 cells = assay: Bromodeoxyuridine (BrdU) proliferation assay; type: cell-based, human; settings: for IC50: Homo sapiens, A549, 48 h, BrdU ELISA 48 hours after addition of compound, tested 0.03-10 uM, cell line not given (A549 method; SW-480 and MDA-MB-231 also used), read-out: Assay Result (IC50μM); for Activity ranking: most active compounds of the invention / Activity ranking: particularly active examples of the compounds of the invention: antiproliferative activity
Procedure: In order to determine the antiproliferative activity of microtubule inhibitors, A549 cells were plated in 96 well plates at 2000 cells/well 24 hours prior to the addition of a compound of the invention in 80 ul growth media (F12K, 10% FBS, Pen/Strep). Prior to addition to cells, compounds were solubilized in 100% DMSO to 5 mM and serially diluted in 6 semi-log steps in 100% DMSO. The diluted compounds were added to cells by two 15.8-fold dilution steps, the first being a dilution into a 23% ethanol/H2O mixture and the second being a dilution into growth media. Finally, these dilutions were followed by a 1:1 dilution onto cells. The resulting final solvent concentration was 0.2% DMSO/0.75% ethanol. Compounds were tested at final concentrations of 10, 3, 1, 0.3, 0.1 and 0.03 uM. Forty-eight hours after the addition of compound, the effects on cellular proliferation were measured using a cell proliferation BrdU ELISA (Roche Molecular Biochemicals, Cat.#1 669 915).

[1] = tested on: MAP-rich tubulin protein from bovine brain; assay: Tubulin polymerization turbidity assay (A340 over time); type: biochemical
Procedure: FIG. 1. Tubulin polymerization inhibitory activity of the compounds of the invention was assayed by following the turbidity of a tubulin-containing solution over time. Polymerization of tubulin generates microtubules, the presence of which increases the absorbance of the assay solution over time. Effective inhibition manifests as a reduction of rate of absorbance increase at 340 nanometers. (a) 10 μM of compounds 19, 39, 43, 54 and 62, as well as 10 μM nocodazole as a positive control and DMSO as a negative control. (b) 10 μM of compounds 1, 88, 95, and 54, as well as 10 μM as well a positive controls 1 and 2 and DMSO as a negative control. (c) 0.4, 2.0 and 10 μM compound 54 versus 0.4, 2.0 and 10 μM nocodazole as a positive control and DMSO as a negative control.
Measurement of the tubulin polymerization can be achieved using known methodologies. For example, assays for tubulin polymerization may be performed using a kit from Cytoskeleton (Denver, Colo.) and as described by Tahir, S. K., et al, (2001) Cancer Res., 61:5480–5.
The assay measures tubulin polymerization as an increase in turbidity (A340) over time. Assays for tubulin polymerization were performed using a kit from Cytoskeleton (Denver, Colo.) and as described by Tahir, S. K., et al, (2001) Cancer Res., 61: 5480–5, incorporated herein by reference, and as described below.
To determine the ability of the compounds to inhibit microtubule polymerization in vitro, the following protocol was followed: (i) 70 μl ice-cold MAP-rich tubulin protein from bovine brain (1.5 mg/ml final concentration) was added to polymerization buffer (80 mM PIPES pH6.8, 1 mM EGTA, 1 mM MgCl2, 1 mM GTP) in a quartz microcuvette; (ii) 0.7 μl of DMSO or 100X stock of control (nocodazole) or test compound (thienopyrimidine) in DMSO were added to the cuvette; (iii) the contents were mixed by pipefting gently; (iv) the polymerization reaction was initiated by placing the cuvette in pre-warmed (37° C.) cuvette holder in Beckman spectrophotometer; (v) the absorbance was monitored at 340 nm at 30 second intervals for 20 minutes. Tubulin polymerization result in increased turbidity in the reaction solution, which is registered as an increase in absorbance at 340 nm. Inhibitors of tubulin polymerization are detected by a reduction in the rate, the initial slope, and/or extent of the turbidity change (i.e., max. absorbance at 340 nm) in plots of ΔA340 versus time.

SW480 tumors = assay: SW480 (colon) human tumor xenograft in nude mice; type: in vivo, NCr nude (nu/nu) female mice; settings: 10 mg/kg daily intraperitoneal
Text: as §1, with “treatment. […]” for “treatment.”
After the animals were released from quarantine, the mice were injected subcutaneously in the right flank with either 5×10^6 A549 cells or 5×10^6 SW480 cells in complete medium at an injection volume of 0.1 ml. Tumor dimensions and body weights were measured two times per week. […]

[2] = 10 μM compound, FIG. 1 (a), (b)

## CC(=O)O[C@H]1C(=O)[C@@]2(C)[C@H]([C@H](OC(=O)c3ccccc3)[C@]3(O)C[C@H](OC(=O)[C@H](O)[C@@H](NC(=O)c4ccccc4)c4ccccc4)C(C)=C1C3(C)C)[C@]1(OC(C)=O)CO[C@@H]1C[C@@H]2O [Taxol, reference compound]
A549 (lung) tumors; A549 xenograft, 20 mg/kg intraperitoneal every fourth day (Days 1, 4, 7, 10)
  Increase in tumor volume at 35 days normalized to tumor volume at start of drug treatment: 4 fold
A549 (lung) tumors; 20 mg/kg intraperitoneal every fourth day
  %T/C (mean tumor volume treated vs. control ×100): 59%

## COCCNC(=S)NNc1ncnc2cc(-c3cccc(C)c3)sc12 [Compound 88]
A549 cells
  IC50: 0.06 µM
  Activity ranking: most active compounds of the invention: most active
  Activity ranking: particularly active examples of the compounds of the invention: particularly active
[1]; [2]
  Inhibition of tubulin polymerization (reduction of rate of absorbance increase at 340 nanometers): Inhibition activity is observed

## S=C(NNc1ncnc2cc(-c3ccccc3)sc12)NC1CC1 [Compound 19]
A549 cells
  IC50: 0.089 µM
  Activity ranking: most active compounds of the invention: most active
  Activity ranking: particularly active examples of the compounds of the invention: particularly active
[1]; [2]
  Inhibition of tubulin polymerization (reduction of rate of absorbance increase at 340 nanometers): Inhibition activity is observed

## S=C(NCC1CC1)NNc1ncnc2cc(-c3ccccc3)sc12 [Compound 62]
A549 cells
  IC50: 0.228 µM
  Activity ranking: most active compounds of the invention: most active
  Activity ranking: particularly active examples of the compounds of the invention: particularly active
[1]; [2]
  Inhibition of tubulin polymerization (reduction of rate of absorbance increase at 340 nanometers): Inhibition activity is observed

## COC(=O)Nc1nc2ccc(C(=O)c3cccs3)cc2[nH]1 [nocodazole, reference compound]
[1]; [2]
  Inhibition of tubulin polymerization (reduction of rate of absorbance increase at 340 nanometers): Inhibition activity is observed
[1]; 0.4, 2.0 and 10 μM, FIG. 1 (c)
  Inhibition of tubulin polymerization (reduction of rate of absorbance increase at 340 nanometers): Inhibition activity is observed

## COCCNC(=S)NNc1ncnc2cc(-c3ccccc3Cl)sc12 [Compound 95]
A549 cells
  IC50: 1.47 µM
  Activity ranking: particularly active examples of the compounds of the invention: particularly active
[1]; [2]
  Inhibition of tubulin polymerization (reduction of rate of absorbance increase at 340 nanometers): Inhibition activity is observed

## S=C(NNc1ncnc2cc(-c3ccccc3Cl)sc12)NC1CC1 [Compound 43]
A549 cells
  IC50: 0.438 µM
  Activity ranking: most active compounds of the invention: most active
  Activity ranking: particularly active examples of the compounds of the invention: particularly active
[1]; [2]
  Inhibition of tubulin polymerization (reduction of rate of absorbance increase at 340 nanometers): Inhibition activity is observed

## Cc1cc(C)cc(-c2cc3ncnc(NNC(=S)NC4CC4)c3s2)c1 [Compound 54]
A549 cells
  IC50: 0.016 µM
  Activity ranking: most active compounds of the invention: most active
  Activity ranking: particularly active examples of the compounds of the invention: particularly active
[1]; [2]
  Inhibition of tubulin polymerization (reduction of rate of absorbance increase at 340 nanometers): Inhibition activity is observed
[1]; 0.4, 2.0 and 10 μM, FIG. 1 (c)
  Inhibition of tubulin polymerization (reduction of rate of absorbance increase at 340 nanometers): Inhibition activity is observed

## S=C(NNc1ncnc2cc(-c3ccccc3)sc12)Nc1ccccc1 [Compound 1]
A549 (lung) tumors; A549 xenograft, 10 mg/kg daily intraperitoneal
  Increase in tumor volume at 35 days normalized to tumor volume at start of drug treatment: 4 fold
A549 (lung) tumors; A549 xenograft, 10 mg/kg daily, vehicle control 346.9±164.7 mm^3
  Mean tumor volume after 27 days of treatment: 223.8±164.1 mm^3
A549 (lung) tumors; A549 xenograft, Compound 1 10 mg/kg daily intraperitoneal, 10 mg/kg
  Effect on tumor growth: slowed tumor growth substantially; also recorded: substantial suppression of tumor growth
A549 (lung) tumors; 10 mg/kg daily intraperitoneal
  %T/C (mean tumor volume treated vs. control ×100): 65%
A549 cells
  IC50: 0.664 µM
  Activity ranking: most active compounds of the invention: most active
  Activity ranking: particularly active examples of the compounds of the invention: particularly active
SW480 tumors
  Effect on tumor size: did not result in a reduced tumor size
SW480 tumors; controls 677.9±574.3 mm^3
  Tumor volume: 647.7±500.6 mm^3
[1]; [2]
  Inhibition of tubulin polymerization (reduction of rate of absorbance increase at 340 nanometers): Inhibition activity is observed

## Cc1cccc(-c2cc3ncnc(NNC(=S)NC4CC4)c3s2)c1 [Compound 39]
A549 cells
  IC50: 0.039 µM
  Activity ranking: most active compounds of the invention: most active
  Activity ranking: particularly active examples of the compounds of the invention: particularly active
[1]; [2]
  Inhibition of tubulin polymerization (reduction of rate of absorbance increase at 340 nanometers): Inhibition activity is observed

## COc1ccc(-c2cc3ncnc(NNC(=S)Nc4ccccc4)c3s2)cc1 [Compound 33]
A549 cells
  IC50: 0.155 µM
  Activity ranking: most active compounds of the invention: most active
  Activity ranking: particularly active examples of the compounds of the invention: particularly active

## Cc1ccc(-c2cc3ncnc(NNC(=S)NC4CC4)c3s2)cc1C [Compound 55]
A549 cells
  IC50: 0.15 µM
  Activity ranking: most active compounds of the invention: most active
  Activity ranking: particularly active examples of the compounds of the invention: particularly active
